Here are results for one substance from US7252953B2, “Method of detecting and preventing Alzheimer's disease, particularly at prodromal and early stages” (United States of America Department of Veterans Affairs, priority 2002, dated 2007).

Entries after “also recorded” stand apart in the source; their conditions may differ.

Assay [1] relates to fibrillar actin (F-actin). As to the kind of experiment: Phalloidin staining of F-actin in microglial cells. Type of assay: cell-based, murine. The protocol: Microglial cells were seeded onto poly-L-lysine-coated 8-chamber slides at a density of 1×10^4/well. After various treatments, cells were immediately fixed with pre-chilled (4° C.) 5% acetic acid in methanol for 45 min at 4° C., followed by washing with PBS. The fixed cells were blocked and double-stained with phalloidin-FITC (1:1,000) and anti-GRK5 (1:500) or GRK2 (1:500). Secondary antibody-Cy3 conjugates (1:500) staining, washing, mounting and confocal microscopic visualization were performed routinely as previously described (Reference 29).
Microglial-mediated inflammation is an important pathological component of AD (Reference 28). […] Thrombin, a serine protease is known to activate protease-activated GPCRs, (PARs) such as PAR1 (Reference 29) and PAR4 in microglia. The sAβ preparation used in this study has been previously characterized as composed principally of conformational intermediates by CD-spectrum (Reference 30) and a mixture of monomeric and oligomeric Aβ by Western blotting.

The subject of another assay is PARs-GRKs binding. Kind of assay: Inhibition of GRK-PAR binding by sAβ-pretreatment in microglial cells (IP and WB, all examined PARs and GRKs). Type of assay: cell-based, murine. The note with it: sAβ1-42 500 nM pretreatment 5 min, then 100 nM thrombin 30 seconds. The procedure: Primary microglial cultures were prepared from neonatal mouse (C57BL6) brains as previously described (Reference 29) and maintained in Delbecco's modified Eagle's medium with F-12 nutrient mixture (DMEM/F12) containing 10% fetal bovine sera (FBS) and antibiotics. N9 clonal murine microglial cell cultures were maintained in Iscoves modified Delbecco's medium (IMDM) containing 5% heat-inactivated FBS, 2 mM L-glutamine, 50 μM 2-mercaptoethanol and antibiotics. Treatment of both primary and N9 microglial cells were performed under serum-free conditions. Freshly solublized Aβ (BioSource, Camarillo, Calif.) peptides were prepared and characterized as previously described (References 30 and 44) and were used in all in vitro experiments. […]
Cultured cells were lysed in pre-chilled 2×IP buffer I (Tris, 20 mM, pH 7.4; NaCl, 300 mM; EDTA, 2 mM; 2 mM EGTA, pH 8.0; 0.4 mM sodium ortho-vanadate, 2% Triton X-100; 1% NP-40; 0.4 mM PMSF) supplemented both with phosphatase and protease inhibitor cocktails. After centrifugation, the supernatants were collected and total protein concentrations were determined by the bicinchoninic acid assay (BCA). […] Both antibodies to GRK2 and GRK5 (Santa Cruz) were diluted 1:500 for WB, other routine procedures, WB for total and phospho-p44/42 MAPK, and semi-quantitative analysis of protein band density were performed as previously described (Reference 29). […]

A further assay deals with [Ca^2+]i. Kind of assay: Ca2+ imaging (Fluo-4) in microglial cells. The class given is cell-based, murine. The note with it: sAβ-pretreated cells (500 nM sAβ1-42), then 100 nM thrombin. The procedure:
(§1) Primary microglial cultures were prepared from neonatal mouse (C57BL6) brains as previously described (Reference 29) and maintained in Delbecco's modified Eagle's medium with F-12 nutrient mixture (DMEM/F12) containing 10% fetal bovine sera (FBS) and antibiotics. N9 clonal murine microglial cell cultures were maintained in Iscoves modified Delbecco's medium (IMDM) containing 5% heat-inactivated FBS, 2 mM L-glutamine, 50 μM 2-mercaptoethanol and antibiotics. Treatment of both primary and N9 microglial cells were performed under serum-free conditions. Freshly solublized Aβ (BioSource, Camarillo, Calif.) peptides were prepared and characterized as previously described (References 30 and 44) and were used in all in vitro experiments. Unless specified, cells were always pretreated with sAβ for 5 min and then followed by challenge with α-thrombin (100 nM or as indicated), glutamate (2 mM) or LPS (5 ng/ml).
We measured [Ca^2+]i in microglial cells using Fluo-4 (2 μM) with the aid of a Nikon BioRadiance triple laser scanning confocal microscope. Image collection, quantification and data analysis were performed as previously described (Reference 29).
(§2) In previous studies, we found thrombin signaling via PARs in microglial cells involving [Ca^2+]i increase and transient activation of both p38 and p44/42 mitogen-activated protein kinases (MAPKs) (Reference 29). To understand potential consequences of GRK dysfunction induced by sAβ, for these studies we also assessed changes in thrombin signaling in sAβ-pretreated microglial cells.
(§3) FIG. 5A, N9 microglial cells were pre-treated with 500 nM sAβ1-42 (arrow “1”) followed by 100 nM thrombin treatment (arrow “2”). Changes in [Ca^2+]i were measured as previously described (Reference 29) from three separate experiments. […] For both FIGS. 5B and 5C, lane M=Marker, 1=Control (0 min), 2=Control (25 min), 3=Aβ1-42 (25 min), 4=Thrombin (20 min), 5=Aβ1-42+thrombin (20 min post-Aβ), 6=Control (24 h), 7=Aβ1-42 (24 h), 8=Thrombin (24 h) and 9=Aβ1-42+thrombin (24 h post-Aβ). “P” and “T” indicate phosphorylated and total p38 or p44/42 MAPKs, respectively.

For the next assay, the system named is p44/42 MAPK. Kind of assay: p44/42 MAPK phosphorylation in microglial cells (WB). The class given is cell-based, murine. The procedure:
as §1
(§4) Cultured cells were lysed in pre-chilled 2×IP buffer I (Tris, 20 mM, pH 7.4; NaCl, 300 mM; EDTA, 2 mM; 2 mM EGTA, pH 8.0; 0.4 mM sodium ortho-vanadate, 2% Triton X-100; 1% NP-40; 0.4 mM PMSF) supplemented both with phosphatase and protease inhibitor cocktails. After centrifugation, the supernatants were collected and total protein concentrations were determined by the bicinchoninic acid assay (BCA). Equal amounts (250 μg) of cell lysates from each group were mixed with 20 μl (˜5 μg) of either PAR1 or PAR4 antibodies, and brought to a total volume of 1 ml in 1×IP buffer. Following a 1 hour incubation at 4° C., appropriate secondary antibody-agarose conjugates were added followed by incubation (30 min with agitation), centrifugation and sufficient washes. The pellets were resuspended in 30 μl of electrophoresis sample buffer and boiled for 5 min. The supernatants were directly used for polyacrylamide sodium dodecyl sulfate gel electrophoresis (SDS-PAGE) and WB analysis. To prepare subcellular fractions of brain samples, we homogenized fresh or fresh-frozen tissues in Tris buffered saline solution (Tris, 10 mM, pH 7.4; NaCl, 150 mM; EDTA, 1 mM; 1 mM EGTA, pH 8.0; 0.2 mM sodium ortho-vanadate) supplemented with protease inhibitor cocktails. After centrifugation (12,000 g at 4° C. for 15 min), the supernatants were collected as cytosolic fractions. The pellets were resuspended in 1×IP buffer containing protease inhibitor cocktail. Following brief sonication and centrifugation (12,000 g at 4° C. for 15 min), the supernatants were collected as membrane fractions. Both antibodies to GRK2 and GRK5 (Santa Cruz) were diluted 1:500 for WB, other routine procedures, WB for total and phospho-p44/42 MAPK, and semi-quantitative analysis of protein band density were performed as previously described (Reference 29).
as §2, §3

A further assay deals with p38 MAPK. Kind of assay: p38 MAPK phosphorylation in microglial cells (WB). Type of assay: cell-based, murine. The protocol:
as §1, §4, §2, §3

In assay [2] the test system is TNF-α. Kind of assay: TNF-α release in primary mouse brain microglial cultures. The class given is cell-based. The protocol:
as §1
(§5) TNF-α production in microglial culture media was measured and standardized as previously described (Reference 29).
(§6) Given our results that sAβ disrupts GRK function and inhibits GPCR desensitization in microglia, we next investigated whether such signaling dysregulation might lead to cellular functional changes in microglia. Both primary and N9 clonal murine microglial cultures were used and TNF-α secretion in culture media was measured as an outcome. […] Moreover, the potentiation effect of sAβ on thrombin and glutamate-induced microglial activation was dose-dependent, with a minimal effective concentration (ECmin) of 20 nM and a maximal EC (ECmax) of 500 nM. Furthermore, the enhancement effect was not observed if sAβ was given after (10 min) thrombin or glutamate treatments. […] Together with the evidence that sAβ inhibits GRK-GPCR interactions and causes prolongation of GPCR signaling, we conclude that sAβ, by disrupting GRK function, alters microglial reactivity to specific GPCR activators.
FIG. 6A, pretreatment with sAβ1-42 potentiated (p<0.01) TNF-α release induced by increasing doses of thrombin (Thr) as indicated from primary mouse brain microglial cultures. n=4. […]

Assay [3] deals with TNF-α. Kind of assay: TNF-α release in N9 clonal murine microglial cells. The class given is cell-based. The procedure:
as §1, §5, §6
FIG. 6A, pretreatment with sAβ1-42 potentiated (p<0.01) TNF-α release induced by increasing doses of thrombin (Thr) as indicated from primary mouse brain microglial cultures. n=4. […] The ECmin and ECmax for sAβ's potentiation are approximately 20 nM and 500 nM, respectively. n=6.

The mark [4] stands for this setting: sAβ pretreatment (5 min) followed by thrombin, within 20 min post-Aβ treatment.
Setting [5] is: sAβ-pretreatment followed by thrombin, 24 h.
Where [6] appears, read: substance alone, within 20 min post-Aβ treatment.
Where [7] appears, read: 5 min pretreatment, N9 cells, FIG. 6B.

Take “sAβ: Soluble β-amyloid, chain length not stated at the place; sAβ1-42 (500 nM) in Examples 3-6”: in assay [1], the “formation of fibrillar actin (F-actin)” value is given as “caused rapid formation of fibrillar actin (F-actin)”. In addition, in the assay with PARs-GRKs binding, the “binding of all examined PARs to GRKs after thrombin in sAβ-pretreated cells” value was “essentially abolished; also recorded: almost completely abolished”. In assay [Ca^2+]i, the “[Ca^2+]i reached by the subsequent slow climb, without decrease” value is “greater than 450 nM”. Besides, the “p44/42 MAPK phosphorylation” value with p44/42 MAPK (setting [4]) was “increased phosphorylation”; in the assay on p44/42 MAPK (setting [5]) it was “remained elevated; also recorded: persistent phosphorylation”; in the assay with p44/42 MAPK (substance alone, 24 h) it was “returned to basal levels”; in the assay with p44/42 MAPK (setting [6]) it was “increased phosphorylation”. The “p38 MAPK phosphorylation” value is listed as “increased phosphorylation” with p38 MAPK (setting [4]); “remained elevated; also recorded: persistent phosphorylation” in the assay on p38 MAPK (setting [5]); “returned to basal levels” in the assay with p38 MAPK (substance alone, 24 h); “increased phosphorylation” in the assay on p38 MAPK (setting [6]). Also, the “effect of sAβ pretreatment on thrombin-induced TNF-α release” value is “significantly potentiated” with TNF-α [2] (5 min pretreatment, FIG. 6A) and “significantly potentiated” with TNF-α [3] (setting [7]). For the same substance, the “TNF-α release induced by sAβ alone” value is “insufficient to induce significant TNF-α release” in the assay on TNF-α [2] (nM concentrations) and “insufficient to induce significant TNF-α release; also recorded: not significant” in the assay with TNF-α [3] (nM concentrations, N9 clonal microglial cultures). In addition, the “effect of sAβ pretreatment on LPS-induced TNF-α release” value in the assay with TNF-α [3] (setting [7]) is on record as “not”. Also, the “effect of sAβ pretreatment on glutamate-induced TNF-α release” value in the assay with TNF-α [3] (setting [7]) is recorded as “significantly potentiated”. The “maximal EC (ECmax) of sAβ's potentiation” value in the assay on TNF-α [3] (potentiation of thrombin- and glutamate-induced TNF-α release) turned out to be 500 nM. Further, the “enhancement of TNF-α release when sAβ is given after thrombin or glutamate (post-treatment)” value in the assay on TNF-α [3] (sAβ given 10 min after thrombin or glutamate) is “not observed”.
